Experimental findings from patent publication US11154470B1, “Anti-inflammatory and senolytic dental care product with tooth whitening characteristics” (Credentis AG, priority 2020, dated 2021) are described below.

A short description of this assay: Tooth whitening: colour change of tooth enamel measured with a dental spectrophotometer (L*a*b, ISO 28399). Conditions: peptide alone 7.5 mg/mL, without excipients; 24 h after application; 10 teeth, three measurements per tooth. As for the experimental part: Suspensions of oligopeptide 104 (5 mg/ml) with or without hydroxyapatite particles (average size d50≤300 nm (Horiba); 40-60% crystallinity, 25 wt %) were generated.
The suspensions were directly applied onto an enamel surface of a tooth, and residues washed off (10 sec). The specimen was stored in distilled water for 24 hours at 37° C. The procedure was repeated 3 times.
The tooth colour was measured with a dental spectrophotometer (VITA Easyshade). The illumination conditions were standardized with a black box as the background for the teeth during the measurement. The tip was applied perpendicular to the tooth surface and the average L*a*b-values from three repetitions were used for evaluations. Colour measurement were done at baseline ([…]), 24 hours after first application (t1), 24 hours after second application (t3), 24 hours after the third application (t4).
The mean changes of the L*a*b-values between different measurements in each group were expressed as […]E (according to ISO 28399).
Oligopeptide 104 was used in a concentration of 7.5 mg/mL, i.e., the concentration was higher than the concentration of peptide used in the application alone. ΔE was determined 24 h after application, with three measurements per tooth and 10 teeth examined. ΔE was 0.62. […]

Turning to QQRFEWEFEQQ (P11-4 / oligopeptide 104), the ΔE amounted to 0.62.
